Data: patent publication EP4620954A1, “CDK2 INHIBITOR, PREPARATION METHOD THEREFOR, AND USE THEREOF” (Shandong Luye Pharmaceutical Co., Ltd., priority 2022, dated 2024)
Like-named read-outs stand apart in the source and are kept apart here.

Columns and labels:
[1] = molecular target: T1, CDK1/Cyclin B (Homo sapiens, UniProt P06493); assay: CDK1 kinase activity assay (TR-FRET); format: biochemical
T1 construct: purchased Invitrogen PR4768C
Procedure: (§1) Compounds were dissolved in DMSO and serially diluted 3-fold to generate 11 concentrations. 100 nL of each compound was added to 384-well plates, followed by the addition of 5 µL of 2× CDK2/Cyclin E1 or CDK1/Cyclin B enzyme mixed solution. 5 µL of buffer (50 mM Hepes (pH 7.5), 10 mM MgCl2, 1 mM EDTA, 0.01% Brij-35, 2 mM DTT (prepared freshly)) was added to the complete inhibition control wells. The plates were centrifuged at 1000 rpm for 30 s and incubated at 23 °C for 15 min. Then, 5 µL of 2× MLight-MBP peptide (containing 10 µM ATP) was added to each well of each assay plate. The plates were centrifuged again at 1000 rpm for 30 s and incubated at 23 °C for 90 min.
(§2) After the incubation was completed, the reaction was stopped with a detection buffer containing 15 mM EDTA and 2 nM Eu-anti-P-MBP antibody. After centrifugation at 1000 rpm for about 1 min, the plates were incubated at 23 °C for 60 min and read on Perkin Elmer Envision.
(§3) The IC50 values of the compounds were calculated using GraphPad Prism nonlinear fitting equation. Table 1. Kinase activity assay

[2] = test system: HCT116 cells; assay: Antagonistic effect assay against HCT116 cell proliferation (CellTitle-Glo); format: cell-based; conditions: Homo sapiens, HCT-116, 72 h treatment, 0.01-10.00 µM, read-out: Antiproliferative IC50
Procedure: Frozen HCT116 cells were rapidly transferred from liquid nitrogen to a 37 °C water bath and rapidly shaken for thawing. The cell suspension was transferred to a 15 mL centrifuge tube and centrifuged at 1500 rpm for 5 min, and the supernatant was discarded. The cell pellet was resuspended in RPMI-1640 complete medium (containing 10% fetal bovine serum and 1% penicillin/streptomycin) and transferred to a cell culture dish containing 10 mL of medium. The cells were cultured in an incubator at 37 °C/5% CO2. The cells were passaged after adhesion to the wall.
HCT116 cells in the logarithmic growth phase and in good condition were taken, digested with a trypsin solution, resuspended in a certain amount of RPMI-1640 complete medium to form a single-cell suspension, counted on a cell counting plate, and seeded into a 96-well white plate at a density of 800 cells/well. The plate was left to stand for 5 min and then incubated in an incubator at 37 °C/5% CO2 overnight. The next day, the cells were treated with the compound at different concentrations, and the control group was treated with DMSO at the corresponding concentration. The compound, dissolved in DMSO, was diluted in RPMI-1640 complete medium at a ratio of 1:1000 to obtain final concentrations of 10.00 µM, 3.33 µM, 1.11 µM, 0.37 µM, 0.12 µM, 0.04 µM, and 0.01 µM. Each group was set up with 3 replicate wells, and 100 µL of the treatment solution was added to each well. The plate was incubated in an incubator at 37 °C/5% CO2 for 72 h.
After 72 h of treatment, the CellTitle-Glo assay was performed. 100 µL of CellTitle-Glo solution was added to each well of the control and treatment groups. The plate was mixed on an oscillator for 2 min to induce cell lysis. The 96-well plate was incubated at room temperature for 10 min to stabilize the luminescence signal value. The luminescence signal was measured using a microplate reader. The DMSO-treated cell group was used as the control group, and 50% inhibitory concentration (IC50) was calculated according to the median effect equation as follows: [formula]
The IC50 values of the compounds were calculated using GraphPad Prism nonlinear fitting equation. Table 2. Results for the inhibitory effect of the compounds of the present disclosure on HCT116 cell proliferation

[3] = In-vitro liver microsomal stability, rat; format: in vitro ADME; conditions: SD rat liver microsomes 0.5 mg/mL, 1 µM, NADPH 1 mM, 37 °C
Procedure: (§4) Method: The metabolic stability of test substances was evaluated by using human, dog, and SD rat liver microsomes. The test substances were incubated with liver microsomes from different species and NADPH in a water bath at 37 °C. In the incubation system, the final concentration of the test or control sample was 1 µM, the final concentration of liver microsomes was 0.5 mg/mL, the final concentration of NADPH was 1 mM, and the final concentration of MgCl2 was 3 mM. At designated time points (5 min, 10 min, 20 min, 30 min, and 60 min), the reaction was stopped by adding a cold acetonitrile solution containing tolbutamide (at a concentration of 200 ng/mL) as an internal standard. For the 0-min sample, the stop solution was added before the addition of the NADPH working solution. Testosterone and dextromethorphan were used as positive control samples in the same conditions to assess the stability and reliability of the system. After sample pretreatment, semiquantitative analysis was performed using the LC-MS/MS method. The retention times of the analytes and internal standard, the acquisition of chromatograms and the integration of chromatograms were processed using software Analyst (AB Sciex, Framingham, Massachusetts, USA). The remaining percentage of the test samples after 60 min of incubation was calculated, and the test results are shown in Table 3. Table 3. Test data for the compounds of the present disclosure in human, dog, and rat liver microsomes

[4] = In-vitro liver microsomal stability, dog; format: in vitro ADME; conditions: dog liver microsomes 0.5 mg/mL, 1 µM, NADPH 1 mM, 37 °C
Procedure: as §4

[5] = molecular target: T2, CDK2/Cyclin E1 (Homo sapiens, UniProt P24941); assay: CDK2 kinase antagonistic activity assay (TR-FRET); format: biochemical
T2 construct: purchased Invitrogen PV6296
Procedure: as §1
as §2, with “Envision. The TR-FRET ratio (value at 665 nm/value at 615 nm) was automatically calculated by Envision.” for “Envision.”
as §3

[6] = In-vitro liver microsomal stability, human; format: in vitro ADME; conditions: human liver microsomes 0.5 mg/mL, 1 µM, NADPH 1 mM, 37 °C
Procedure: as §4

[7] = Permeability and transporter substrate evaluation, Caco-2 monolayer; format: in vitro ADME; conditions: human, Caco-2, 2.00 µM, 120 min
Procedure: Cell: Caco-2 cells Instrument: water purification equipment, ELGA LabWate; biosafety cabinet, Nuaire; thermostatic CO2 incubator, Thermo; microplate reader, PerkinElmer; LC-MS/MS, AB SCIEX. Method: The purpose of this study was to determine the two-way permeability of the compounds and evaluate whether they are effluxed and transported by P-glycoprotein (P-gp) using a Caco-2 monolayer cell model. In the experiment, Caco-2 cells were seeded into a 96-well cell plate and cultured for 24 consecutive days for the transport experiment. The compounds were administered bidirectionally at a concentration of 2.00 µM, with or without verapamil. After 120 min of incubation, the samples at the apical end A and the basal end B were collected. The content of the test samples in each sample was measured using the liquid chromatography-tandem mass spectrometry (LC-MS/MS) method. The apparent permeability coefficient and the efflux rate were calculated. Two experimental systems were used successively in this part, with the reference compound (PF-07104091) included. Table 4. Permeability test results

[8] = TR-FRET, peptide mix containing 10 µM ATP, 90 min at 23 °C, read-out: CDK1/Cyclin B1 IC50
[9] = TR-FRET, peptide mix containing 10 µM ATP, 90 min at 23 °C, read-out: CDK2/Cyclin E1 IC50
[10] = Caco-2, Table 5 experimental system
[11] = Caco-2, Table 4 experimental system

T1 sequence (P06493 whole entry): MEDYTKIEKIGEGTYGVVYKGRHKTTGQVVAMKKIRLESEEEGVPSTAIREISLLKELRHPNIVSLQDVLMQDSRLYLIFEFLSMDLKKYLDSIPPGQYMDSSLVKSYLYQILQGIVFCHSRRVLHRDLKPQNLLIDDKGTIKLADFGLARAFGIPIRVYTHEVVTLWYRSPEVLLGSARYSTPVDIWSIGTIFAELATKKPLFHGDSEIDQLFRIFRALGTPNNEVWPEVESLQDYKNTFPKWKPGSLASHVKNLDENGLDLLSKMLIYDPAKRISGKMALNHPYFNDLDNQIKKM
T1 sequence (P14635 whole entry partner): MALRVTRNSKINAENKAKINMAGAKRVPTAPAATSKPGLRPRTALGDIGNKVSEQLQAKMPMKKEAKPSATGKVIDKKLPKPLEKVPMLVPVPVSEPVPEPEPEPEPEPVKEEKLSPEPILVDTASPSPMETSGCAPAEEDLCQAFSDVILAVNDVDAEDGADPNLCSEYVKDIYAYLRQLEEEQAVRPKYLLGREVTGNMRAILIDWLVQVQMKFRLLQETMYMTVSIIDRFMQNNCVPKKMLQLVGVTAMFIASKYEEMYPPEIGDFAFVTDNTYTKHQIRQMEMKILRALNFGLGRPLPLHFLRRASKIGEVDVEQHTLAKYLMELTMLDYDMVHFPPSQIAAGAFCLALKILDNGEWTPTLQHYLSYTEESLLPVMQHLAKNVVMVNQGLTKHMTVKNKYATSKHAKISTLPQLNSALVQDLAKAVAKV

| SMILES | IC50 [1, 8] | IC50 [2] | IC50 [5, 9] | further results |
| --- | --- | --- | --- | --- |
| COCc1cc(C(=O)Nc2cc([C@H]3CC[C@@H](OC(=O)NC(C)(C)C#N)C3)[nH]n2)n(C)n1 [Compound 5] | 845 nM | > 10000 nM | – | – |
| CC(C)NC(=O)O[C@@H]1CC[C@H](c2cc(NC3CCN(S(C)(=O)=O)CC3)n[nH]2)C1 [Compound 8] | 3110 nM | > 10000 nM | – | – |
| COCc1cc(C(=O)Nc2cc([C@H]3CC[C@@H](OC(=O)N4CC5(CCN(C)CC5)C4)C3)[nH]n2)n(C)n1 [Compound 10] | – | 7110 nM | 8.71 nM | Remaining amount% at 60 min Rat [3]: 92%; Remaining amount% at 60 min Dog [4]: 95%; Remaining amount% at 60 min Human [6]: 103% |
| COCc1cc(C(=O)Nc2cc([C@H]3C[C@@H](F)[C@@H](OC(=O)NC(C)C)C3)[nH]n2)n(C)n1 [Compound 11] | – | 1610 nM | 1.07 nM | Remaining amount% at 60 min Rat [3]: 104%; Remaining amount% at 60 min Dog [4]: 99%; Remaining amount% at 60 min Human [6]: 105% |
| CCS(=O)(=O)Cc1cc(C(=O)Nc2cc([C@H]3CC[C@@H](OC(=O)NC(C)C)C3)[nH]n2)n(C)n1 [Compound 12] | 28.5 nM | 1860 nM | 0.61 nM | – |
| CC(C)NC(=O)O[C@@H]1CC[C@H](c2cc(NC(=O)c3cc(CS(=O)(=O)C4CC4)nn3C)n[nH]2)C1 [Compound 13] | – | 2150 nM | 3.37 nM | IC50 [1]: 48.2 nM; Remaining amount% at 60 min Rat [3]: 71.2%; Remaining amount% at 60 min Human [6]: 80.0% |
| Cn1nc(CS(C)(=O)=O)cc1C(=O)Nc1cc([C@H]2CC[C@@H](OC(=O)N3CCC3(C)C)C2)[nH]n1 [Compound 16] | – | 847 nM | 0.16 nM | IC50 [1]: 3.07 nM |
| CC1(C)CCN1C(=O)O[C@@H]1CC[C@H](c2cc(NC(=O)Cc3cccc(P(C)(C)=O)c3)n[nH]2)C1 [Compound 23] | 1850 nM | – | 5.01 nM | – |
| CC1(C)CCN1C(=O)O[C@@H]1CC[C@H](c2cc(NC(=O)Cc3ccc(N4CCCC4=O)cc3)n[nH]2)C1 [Compound 24] | 589 nM | – | 2.58 nM | Remaining amount% at 60 min Rat [3]: 22.8%; Remaining amount% at 60 min Human [6]: 15.4% |
| C=C(C)c1ccncc1O[C@@H]1CC[C@H](c2cc(NC(=O)Cc3cccc(P(C)(C)=O)c3)n[nH]2)C1 [Compound 25] | 11.2 nM | – | 3.09 nM | – |
| C=C(C)c1ccncc1O[C@@H]1CC[C@H](c2cc(NC(=O)Cc3ccc(N4CCCC4=O)cc3)n[nH]2)C1 [Compound 26] | 0.27 nM | 388 nM | 0.92 nM | – |
| CC1(C)CCN1C(=O)O[C@@H]1CO[C@H](c2cc(NC(=O)Cc3cccc(P(C)(C)=O)c3)n[nH]2)C1 [Compound 30] | – | – | 8.22 nM | – |
| C=C(C)c1ccncc1O[C@@H]1CO[C@H](c2cc(NC(=O)Cc3cccc(P(C)(C)=O)c3)n[nH]2)C1 [Compound 31] | 496 nM | – | 23.6 nM | – |
| COCc1cc(C(=O)Nc2cnc([C@H]3CC[C@@H](OC(=O)NC(C)C)C3)s2)n(C)n1 [Compound 36] | – | – | > 1000 nM | – |
| COCc1cc(C(=O)Nc2[nH]nc3c2C[C@@H](OC(=O)NC(C)C)CC3)n(C)n1 [Compound 41] | – | – | > 1000 nM | – |
| COCc1cc(C(=O)Nc2nnc([C@H]3CC[C@@H](OC(=O)NC(C)C)C3)s2)n(C)n1 [Compound 42] | – | – | > 1000 nM | – |
| CC(C)NC(=O)O[C@@H]1CC[C@H](c2cc(Nc3ccc(N4CCN(C)CC4)cn3)n[nH]2)C1 [Compound 49] | – | 1300 nM | 10.7 nM | IC50 [1]: 724 nM; Papp A→B at 2 h, 2 µM [7, 10]: 2.4 ×10⁻⁶ cm/s; Papp B→A at 2 h, 2 µM [7, 10]: 12.2 ×10⁻⁶ cm/s; efflux ratio at 2 h, 2 µM [7, 10]: 5.09 |
| CC(C)NC(=O)O[C@@H]1CC[C@H](c2cc(Nc3ccc(C4CCN(C)CC4)cn3)n[nH]2)C1 [Compound 51] | – | 3530 nM | 6.9 nM | IC50 [1]: 154 nM |
| CC(C)NC(=O)O[C@@H]1CC[C@H](c2cc(Nc3ccc(N4CCN(CC(F)F)CC4)cc3)n[nH]2)C1 [Compound 127] | – | 9800 nM | 12.5 nM | – |
| CC(C)NC(=O)O[C@@H]1CC[C@H](c2cc(Nc3ccc(N4CCN(CC(F)(F)F)CC4)cc3)n[nH]2)C1 [Compound 128] | – | 9950 nM | – | IC50 [5]: 12.8 nM |
| CC(C)NC(=O)O[C@@H]1CC[C@H](c2cc(Nc3ccc(CN4CCN(C)CC4)c(F)c3)n[nH]2)C1 [Compound 134] | – | 1130 nM | 2.14 nM | IC50 [1]: 664 nM; Papp A→B at 2 h, 2 µM [7, 10]: 7.08 ×10⁻⁶ cm/s; Papp B→A at 2 h, 2 µM [7, 10]: 23.4 ×10⁻⁶ cm/s; efflux ratio at 2 h, 2 µM [7, 10]: 3.3 |
| CC(C)NC(=O)O[C@@H]1CC[C@H](c2cc(Nc3ccc(CN4CCNCC4)cc3)n[nH]2)C1 [Compound 136] | 1020 nM | 8430 nM | 5.53 nM | – |
| CCN1CCN(Cc2ccc(Nc3cc([C@H]4CC[C@@H](OC(=O)NC(C)C)C4)[nH]n3)cc2)CC1 [Compound 137] | 976 nM | 1510 nM | 3.74 nM | – |
| COCc1cc(C(=O)Nc2cc(C3CCC(OC(=O)NC(C)C)C3)[nH]n2)n(C)n1 (stereo not shown) [PF-07104091, reference compound] | – | – | – | Papp A→B at 2 h, 2 µM [7, 11]: 0.106 ×10⁻⁶ cm/s; Papp B→A at 2 h, 2 µM [7, 11]: 25.5 ×10⁻⁶ cm/s; efflux ratio at 2 h, 2 µM [7, 11]: 241; Papp A→B at 2 h, 2 µM [7, 10]: 4.3 ×10⁻⁶ cm/s; Papp B→A at 2 h, 2 µM [7, 10]: 37 ×10⁻⁶ cm/s; efflux ratio at 2 h, 2 µM [7, 10]: 8.57 |
